Columns and labels:
MAP3K12 (human) = MAP3K12 (human) (UniProt Q12852)
PDGFRB (human) = PDGFRB (human) (UniProt P09619); assay: KINOMEscan competition binding; conditions: compound 10.0 µM
CAMK2A (human) = CAMK2A (human) (UniProt Q9UQM7); assay: KINOMEscan competition binding; conditions: compound 10.0 µM
CDK14 (human) = CDK14 (human) (UniProt O94921); assay: KINOMEscan competition binding; conditions: compound 10.0 µM
FGFR2 (human) = FGFR2 (human) (UniProt P21802); assay: KINOMEscan competition binding; conditions: compound 10.0 µM
PIP5K1A (human) = PIP5K1A (human) (UniProt Q99755); assay: KINOMEscan competition binding; conditions: compound 10.0 µM
HIPK1 (human) = HIPK1 (human) (UniProt Q86Z02); assay: KINOMEscan competition binding; conditions: compound 10.0 µM
HIPK1 (human), sequence (Q86Z02 whole entry, looked up): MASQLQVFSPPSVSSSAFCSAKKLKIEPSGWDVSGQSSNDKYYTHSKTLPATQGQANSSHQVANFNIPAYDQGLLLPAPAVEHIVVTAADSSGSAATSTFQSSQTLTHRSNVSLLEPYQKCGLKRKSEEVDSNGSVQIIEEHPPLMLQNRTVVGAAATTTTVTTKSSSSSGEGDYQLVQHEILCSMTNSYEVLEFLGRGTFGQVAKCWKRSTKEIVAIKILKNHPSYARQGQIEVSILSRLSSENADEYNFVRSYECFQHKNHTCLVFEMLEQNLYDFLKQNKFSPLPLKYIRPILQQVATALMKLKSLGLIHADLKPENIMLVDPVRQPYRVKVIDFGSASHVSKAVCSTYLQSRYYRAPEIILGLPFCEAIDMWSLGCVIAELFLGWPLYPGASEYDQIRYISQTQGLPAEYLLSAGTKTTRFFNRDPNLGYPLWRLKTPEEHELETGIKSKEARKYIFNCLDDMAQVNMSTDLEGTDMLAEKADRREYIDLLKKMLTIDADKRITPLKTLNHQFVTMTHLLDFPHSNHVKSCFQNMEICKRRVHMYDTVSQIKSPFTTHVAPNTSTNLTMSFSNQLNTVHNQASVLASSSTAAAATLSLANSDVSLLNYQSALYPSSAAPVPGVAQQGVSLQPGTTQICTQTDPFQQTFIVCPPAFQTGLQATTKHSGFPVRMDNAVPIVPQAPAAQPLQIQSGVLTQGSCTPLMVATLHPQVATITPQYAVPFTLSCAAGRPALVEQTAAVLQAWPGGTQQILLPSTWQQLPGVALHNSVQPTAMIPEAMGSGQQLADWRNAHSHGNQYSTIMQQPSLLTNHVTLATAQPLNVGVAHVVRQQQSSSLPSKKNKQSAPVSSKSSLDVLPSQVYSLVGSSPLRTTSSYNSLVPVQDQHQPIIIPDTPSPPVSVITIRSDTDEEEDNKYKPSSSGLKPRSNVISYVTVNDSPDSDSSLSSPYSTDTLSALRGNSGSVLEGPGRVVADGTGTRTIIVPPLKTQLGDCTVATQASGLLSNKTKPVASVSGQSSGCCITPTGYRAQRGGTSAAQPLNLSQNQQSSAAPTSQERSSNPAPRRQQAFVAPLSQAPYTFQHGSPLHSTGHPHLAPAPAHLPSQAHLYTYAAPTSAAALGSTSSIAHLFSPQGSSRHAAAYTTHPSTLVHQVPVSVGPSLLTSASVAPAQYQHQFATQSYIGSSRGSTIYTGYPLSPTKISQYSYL

ZAP70 (human) = ZAP70 (human) (UniProt P43403); assay: KINOMEscan competition binding; conditions: compound 10.0 µM
ZAP70 (human), sequence (P43403 whole entry, looked up): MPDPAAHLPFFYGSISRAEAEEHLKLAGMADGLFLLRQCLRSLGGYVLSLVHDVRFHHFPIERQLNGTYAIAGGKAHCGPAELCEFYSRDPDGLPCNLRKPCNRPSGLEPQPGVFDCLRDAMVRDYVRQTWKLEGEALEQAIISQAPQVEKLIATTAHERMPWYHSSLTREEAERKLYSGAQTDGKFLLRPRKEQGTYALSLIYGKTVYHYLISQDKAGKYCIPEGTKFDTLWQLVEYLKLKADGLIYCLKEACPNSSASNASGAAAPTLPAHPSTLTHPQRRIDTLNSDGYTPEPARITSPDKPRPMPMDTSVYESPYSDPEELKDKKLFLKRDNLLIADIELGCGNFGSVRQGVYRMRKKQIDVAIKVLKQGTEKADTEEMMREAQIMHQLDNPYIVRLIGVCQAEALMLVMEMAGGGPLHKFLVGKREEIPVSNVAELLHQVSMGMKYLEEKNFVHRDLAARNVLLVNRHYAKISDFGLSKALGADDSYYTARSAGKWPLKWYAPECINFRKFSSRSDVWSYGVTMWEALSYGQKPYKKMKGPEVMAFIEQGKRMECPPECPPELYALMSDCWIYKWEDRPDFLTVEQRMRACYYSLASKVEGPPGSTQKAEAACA

NLK (human) = NLK (human) (UniProt Q9UBE8); assay: KINOMEscan competition binding; conditions: compound 10.0 µM
NLK (human), sequence (Q9UBE8 whole entry, looked up): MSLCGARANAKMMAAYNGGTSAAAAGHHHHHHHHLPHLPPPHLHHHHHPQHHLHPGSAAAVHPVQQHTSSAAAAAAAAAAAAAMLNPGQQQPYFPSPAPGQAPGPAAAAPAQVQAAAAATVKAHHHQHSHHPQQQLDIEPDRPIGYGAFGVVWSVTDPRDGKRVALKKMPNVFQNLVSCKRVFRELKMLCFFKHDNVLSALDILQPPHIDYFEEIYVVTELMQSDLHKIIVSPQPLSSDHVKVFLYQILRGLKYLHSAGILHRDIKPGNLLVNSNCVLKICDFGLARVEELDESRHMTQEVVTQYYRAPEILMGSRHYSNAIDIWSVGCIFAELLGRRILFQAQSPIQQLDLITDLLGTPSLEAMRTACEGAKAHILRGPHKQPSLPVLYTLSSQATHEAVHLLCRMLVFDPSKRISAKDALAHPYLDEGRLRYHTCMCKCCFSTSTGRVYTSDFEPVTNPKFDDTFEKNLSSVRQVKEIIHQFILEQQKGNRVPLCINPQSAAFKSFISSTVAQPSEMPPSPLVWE

MAP3K12 (human), sequence (Q12852 whole entry, looked up): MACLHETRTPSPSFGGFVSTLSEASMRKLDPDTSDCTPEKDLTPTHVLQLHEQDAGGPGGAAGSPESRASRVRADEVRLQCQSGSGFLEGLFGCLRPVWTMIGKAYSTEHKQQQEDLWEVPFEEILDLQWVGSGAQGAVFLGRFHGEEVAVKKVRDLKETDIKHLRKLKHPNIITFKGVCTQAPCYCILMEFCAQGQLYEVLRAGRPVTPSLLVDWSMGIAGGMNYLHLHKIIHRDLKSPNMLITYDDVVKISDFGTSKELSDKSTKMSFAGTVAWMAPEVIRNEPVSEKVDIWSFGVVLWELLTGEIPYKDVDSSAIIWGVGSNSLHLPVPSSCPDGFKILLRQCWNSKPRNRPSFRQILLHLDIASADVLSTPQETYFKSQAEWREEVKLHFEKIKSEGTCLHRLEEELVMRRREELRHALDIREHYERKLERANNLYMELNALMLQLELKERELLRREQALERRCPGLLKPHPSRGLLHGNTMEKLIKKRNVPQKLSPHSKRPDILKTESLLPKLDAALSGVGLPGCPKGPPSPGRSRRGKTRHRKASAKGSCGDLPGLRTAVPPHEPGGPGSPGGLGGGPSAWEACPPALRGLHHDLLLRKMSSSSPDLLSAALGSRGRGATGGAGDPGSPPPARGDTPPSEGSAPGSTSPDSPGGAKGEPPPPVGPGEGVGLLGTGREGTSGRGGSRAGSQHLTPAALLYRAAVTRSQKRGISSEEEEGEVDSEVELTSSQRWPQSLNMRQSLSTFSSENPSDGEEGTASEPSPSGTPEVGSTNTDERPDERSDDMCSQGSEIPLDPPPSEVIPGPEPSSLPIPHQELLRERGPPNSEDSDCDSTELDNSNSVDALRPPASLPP
CDK14 (human), sequence (O94921 whole entry, looked up): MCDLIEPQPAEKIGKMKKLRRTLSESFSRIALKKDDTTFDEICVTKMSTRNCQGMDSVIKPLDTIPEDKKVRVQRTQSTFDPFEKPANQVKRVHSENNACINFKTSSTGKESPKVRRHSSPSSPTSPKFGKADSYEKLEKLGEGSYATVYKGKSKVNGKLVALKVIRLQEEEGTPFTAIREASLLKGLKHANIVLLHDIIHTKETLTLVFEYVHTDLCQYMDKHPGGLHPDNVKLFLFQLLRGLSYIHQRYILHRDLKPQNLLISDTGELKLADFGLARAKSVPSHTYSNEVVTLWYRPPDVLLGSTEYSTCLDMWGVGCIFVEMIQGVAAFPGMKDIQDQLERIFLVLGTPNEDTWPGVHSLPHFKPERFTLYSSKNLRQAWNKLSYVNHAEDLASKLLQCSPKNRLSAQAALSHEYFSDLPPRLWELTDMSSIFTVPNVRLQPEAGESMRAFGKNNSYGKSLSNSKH
PDGFRB (human), sequence (P09619 whole entry, looked up): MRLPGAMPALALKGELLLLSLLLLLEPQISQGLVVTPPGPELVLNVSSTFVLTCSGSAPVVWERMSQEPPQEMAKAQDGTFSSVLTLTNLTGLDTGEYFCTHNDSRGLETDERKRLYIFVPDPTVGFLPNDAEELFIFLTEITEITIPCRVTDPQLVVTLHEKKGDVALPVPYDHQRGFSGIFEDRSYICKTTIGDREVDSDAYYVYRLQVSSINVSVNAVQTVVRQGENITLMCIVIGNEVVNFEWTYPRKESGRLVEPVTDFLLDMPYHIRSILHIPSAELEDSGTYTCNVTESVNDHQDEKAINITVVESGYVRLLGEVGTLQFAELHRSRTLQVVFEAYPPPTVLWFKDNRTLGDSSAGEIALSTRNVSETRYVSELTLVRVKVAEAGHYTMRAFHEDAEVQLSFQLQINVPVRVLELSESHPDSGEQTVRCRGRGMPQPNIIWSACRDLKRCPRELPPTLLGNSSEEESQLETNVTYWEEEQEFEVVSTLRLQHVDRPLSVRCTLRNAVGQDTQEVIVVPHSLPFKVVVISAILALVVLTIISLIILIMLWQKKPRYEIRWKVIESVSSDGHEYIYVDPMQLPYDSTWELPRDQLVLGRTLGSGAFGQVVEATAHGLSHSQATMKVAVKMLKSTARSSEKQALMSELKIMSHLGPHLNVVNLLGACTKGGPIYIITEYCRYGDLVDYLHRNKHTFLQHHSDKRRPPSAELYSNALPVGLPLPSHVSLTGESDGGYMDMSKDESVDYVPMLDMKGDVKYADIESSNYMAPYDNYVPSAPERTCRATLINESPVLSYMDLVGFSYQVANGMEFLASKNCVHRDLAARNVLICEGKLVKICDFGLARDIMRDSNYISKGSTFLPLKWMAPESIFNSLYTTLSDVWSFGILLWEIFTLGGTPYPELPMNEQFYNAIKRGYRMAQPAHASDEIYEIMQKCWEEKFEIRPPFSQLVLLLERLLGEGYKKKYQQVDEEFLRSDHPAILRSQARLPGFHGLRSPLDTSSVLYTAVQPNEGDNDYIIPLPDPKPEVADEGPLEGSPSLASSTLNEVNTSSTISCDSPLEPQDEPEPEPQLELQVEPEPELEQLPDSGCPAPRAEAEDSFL

SMILES: O=C(Nc1ccc(Oc2ncnc3[nH]ncc23)cc1)Nc1ccc(Cl)c(C(F)(F)F)c1
- IC50 (MAP3K12 (human)): > 10 µM
- kinase still bound, per cent of control (PDGFRB (human)): 0%
- kinase still bound, per cent of control (CAMK2A (human)): 90%
- kinase still bound, per cent of control (CDK14 (human)): 23%
- kinase still bound, per cent of control (FGFR2 (human)): 51%
- kinase still bound, per cent of control (PIP5K1A (human)): 73%
- kinase still bound, per cent of control (HIPK1 (human)): 52%
- kinase still bound, per cent of control (ZAP70 (human)): 100%
- kinase still bound, per cent of control (NLK (human)): 44%

From the kinase profiling compilation of Christmann-Franck et al. (2016)
